Data on three substances can be found in patent US6890727B2, “Diagnostic assay for Alzheimer's disease: assessment of Aβ abnormalities” (The General Hospital Corporation, priority 1994, dated 2005).

In one series the test system is trypsin. Description: Tryptic digestion of Aβ after incubation with Zn2+. It is filed as biochemical. As to conditions: increasing zinc concentrations. Here is the method:
Tryptic Digestion of Aβ-Aβ1-40 (13.9 μg) was incubated with Zn^2+ ([…] in blocking buffer, 1 h, 37° C.) and then digested with trypsin (12 ng, 3 h, 37° C.). The reaction was stopped by adding SDS sample buffer containing phenylmethylsulfonyl fluoride (1 mM), boiling the samples (5 min), and applying the samples to Tris/Tricine gel electrophoresis and transfer. The blot was washed with EDTA, Coomassie-stained, incubated with ^65Zn^2+, individual bands were excised, assayed for ^65Zn^2+ binding, and N-terminal sequenced to confirm the identity of the digestion products. The effects of Zn^2+ (up to 100 μM in TBS) on the activity of trypsin, itself, were assayed by assay of Z-Arg-amido-4-methylcoumarin (Sigma) fluorescent cleavage product and determined to be negligible.
(FIG. 4a) depicts a blot of tryptic digests of Aβ (13.9 μg) after incubation with increasing concentrations of zinc (lane labels, in micromolar), stained by Coomassie Blue. […] The migration of the low molecular size markers (STD) are indicated (in kilodaltons) on the right. (FIG. 4b) depicts ^65Zn^2+ binding to Aβ tryptic digestion products. The blot in 4a was incubated with ^65Zn^2+, the visible bands excised, and the bound counts for each band determined.

Assay in series [1]: not given
The source holds these as a separate data set.

Series [2] is described as follows: Aβ binding to kaolin (aluminum silicate). Format: physicochemical. The procedure:
Aβ Binding to Kaolin (Aluminum Silicate)—Kaolin suspension was prepared in high performance liquid chromatography water (Fisher), defined, and adjusted to 50% (v/v). Aβ (40 μg) was incubated in siliconized reaction vessels with either kaolin or Sephadex G50 SF (10 μl×50% (v/v)) in Cu^2+, Zn^2+, or EDTA (100 μl in TBS, 5 min, room temperature). The suspension was then pelleted (1500×g, 3 min) and the supernatant removed and diluted 20-fold with water to bring the UV absorbance readings into the linear range. Samples were assayed at 214 nm before and after incubation with kaolin or Sephadex.
(FIG. 3a) depicts concentration (by 214 nm absorbance) of Aβ remaining in supernatant after incubation with 10 mg of G50 Sephadex. (FIG. 3b) depicts concentration (by 214 nm absorbance) of Aβ remaining in supernatant after incubation with 10 mg of kaolin, expressed as percent of the starting absorbance.

Series [3] can be described thus: Aβ incubation with column components, UV absorption before and after. It is filed as physicochemical. The procedure:
To determine the part of the column onto which Aβ was precipitating, Aβ solutions were incubated with various column components and assayed by UV absorption before and after incubation. Replicating the chromatography experimental conditions, Aβ (100 μM in equilibration buffer) was incubated for 1 h in plastic reaction vessels with or without the presence of Sephadex.

A short description of series [4]: Zinc-induced tinctorial amyloid formation (Congo Red, polarized light). It is filed as physicochemical. Here is the method:
FIGS. 8a and 8b are photographs showing zinc-induced tinctorial amyloid formation. […] The particle diameter is 40μ. […] The experiment was repeated with EDTA (50 μM) substituted for Zn^2+ and yielded no visible material.
The particle diameter is 40μ. […] The experiment was repeated with EDTA (50 μM) substituted for Zn^2+ and yielded no visible material.

Series [5] can be described thus: 65Zn2+ binding to immobilized peptide (dot-blot, Scatchard competition analysis). The procedure:
^65Zn^2+ Binding Studies—Dissolved peptides (1.2 nMol, unless other wise stated) were dot-blotted onto polyvinylidene difluoride membrane (0.2-μm pore size; Pierce Chemical Co.), washed twice with chelating buffer (200 μl×100 mM NaCl, 20 mM Tris-HCl, 1 mM EDTA, pH 7.4), then five times with blocking buffer (200 μl×100 mM NaCl, 20 mM Tris-HCl, 1 mM MnCl2, pH 7.4), and then incubated (60 min, 20° C.) with ^65Zn (unless otherwise stated 130,000 cpm, […] ^65ZnCl2 in 200 μl of blocking buffer±competing metal ion chloride). The dot-blot was then washed with blocking buffer (5×200 μl), the dot excised, placed in a test tube, and assayed by γ-counting (11% efficiency). The equilibration volume for stoichiometry estimates was regarded as 6×200 μl. The 214 nm UV absorbance of the unbound flow-through was assayed to determine the total amount of peptide remaining bound onto the membrane. […] To alter the pH, the ^65Zn incubation was carried out in the presence of 100 mM buffer: MOPS (pH 6.5-7.0), MES (pH 5.0-6.0), acetate (pH 3.5-4.5). The dot-blot apparatus was washed with detergent and EDTA (50 mM) then rinsed and siliconized between use.
Aliquots of Aβ were incubated (60 min) with ^65Zn^2+ in the presence of varying concentrations of unlabeled Zn^2+ (0.01-50 μM total). Values shown are means±S.D., n≧3. […] (FIG. 1b) depicts specificity of the Zn^2+ binding site for various metals. Aβ was incubated (60 min) with ^65 Zn^2+ (157 nM, 138,000 cpm) and competing unlabeled metal ions (50 μM total). […] Percent binding of total counts ^65Zn^2+/min added is corrected for the amounts (in nanomoles) of peptides adhering to the membrane. […] 157 nM ^65Zn (138,000 cpm) is used in this experiment to probe immobilized peptide (1.6 nmol).

Assay in series [6]: as above
As to conditions: 1 min.

The conditions of series [7]: 20 μM in PBS, cited from earlier work.
For series [8] the following is noted: centrifugation studies; cited from earlier work.
The conditions of series [9]: neutral pH; cited from earlier work.

Like-named read-outs stand apart in the source and are kept apart here.

Regarding “Aβ1-40: synthetic peptide representing secreted human Aβ1-40, 4.3 kDa, main component of Alzheimer cerebral amyloid”, the “effect of zinc on rate of tryptic digestion of the peptide” value in the series with trypsin is recorded as “is inhibited by the presence of zinc”. Further, the “>0.2μ particle assembly following incubation with EDTA” value (EDTA) is reported as 10-20%. Where the note is “EDTA buffer, peptide 1.6 μM”, the “near-instantaneous aggregation into >0.2μ particles” value is 20%. The “peptide aggregated into >0.2μ particles” value runs as follows: (EDTA, higher peptide concentrations) “≈ 15%”; (EDTA, peptide 0.8 μM) “no detectable aggregation”; (Zn^2+ 25 μM, 30 minutes, various peptide concentrations) “up to 80%”; (Zn^2+ 25 μM, peptide 0.8 μM) above 70%. Besides, the “particle assembly rate of second phase” value (Zn^2+ 25 μM, peptide 1.6 μM) is recorded as 3.2 nM/min. Moreover, the “time to steady state of the second phase” value (Zn^2+ 25 μM, peptide 1.6 μM) is at most 2 min. In addition, the “half-maximal assembly rate of initial phase” value (Zn^2+ 25 μM, peptide 1.6 μM, pH 7.4) is “≈ 0.4 μM/min”. Moreover, the “time until available peptide is exhausted” value (at second-phase rate) was “within five hours”. Under “curve of FIG. 6A extrapolated to 0.6 nM peptide, Zn^2+ 25 μM”, the “peptide that would aggregate into >0.2μ particles, extrapolated” value was 25%. Further, the “peptide recovered when retained aggregates are washed with EDTA” value in [1] (>0.65 aggregates, EDTA 50 μM) was 22%. In addition, the “proportion of particles >0.1μ” value in series [1] (EDTA, peptide 1.6 μM) came to 47%. For the same substance, the “proportion of particles >0.22μ” value in series [1] (EDTA, peptide 1.6 μM) amounted to 40%. Further, the “proportion of particles >0.65μ” value is on record as 32% in series [1] (EDTA, peptide 1.6 μM) and 82% in series [1] (Zn^2+ 25 μM, peptide 1.6 μM). Further, the “increase of proportion of >0.1μ particles following incubation with Zn^2+” value in series [1] (Zn^2+ 25 μM vs EDTA) worked out at 50%. For the same substance, in series [1] (Zn^2+ 25 μM vs EDTA), the “increase of proportion of >0.22μ particles following incubation with Zn^2+” value worked out at 55%. Moreover, the “additional ≦0.22μ peptide resolubilized by EDTA treatment” value in series [1] (compared with >0.65 aggregates) came out at 7%. For the same substance, the “reversibility of binding to kaolin” value in [2] (10 mM EDTA) is “not reversible”. Moreover, in series [2] (Aβ 0.4 mg/ml, kaolin 5% v/v, 5 min, room temperature), the “precipitation of the peptide by kaolin” value is reported as “up to 87%”. Moreover, in [3] (Aβ 100 μM, 1 h), the “binding to Sephadex” value is reported as below 1%. In addition, the “loss to siliconized plastic” value in series [3] (Aβ 100 μM, 1 h) is below 1%. Also, the “adsorption in borosilicate glass test tubes” value worked out at 20% in [3] (without zinc) and 35% in series [3] (zinc 25 μM). Further, the “Zn^2+ concentration inducing amyloid by tinctorial criteria” value in [4] (Congo Red) stood at 3 µM. The “particle diameter of zinc-induced precipitate” value in series [4] (peptide 25 μM, Zn^2+ 25 μM, 30 minutes, 37° C.) stood at 40 μ. Further, the “time at which ^65Zn^2+ binding plateaued” value in series [5] came out at 1 h. In [5] (pH 6.0), the “^65Zn^2+ binding at lower pH” value was 30 % of Bmax. The “^65Zn^2+ binding at 1 min” value in [6] is listed as 60 % Bmax. For the same substance, in [7] (pH 7.4), the “time stable in solution” value was 10 days. The “time to half-maximal aggregation” value in [7] (seeded with Aβ1-42 (2 μM)) is 4 to 5 days.

In the case of “^125I-human Aβ1-40: human Aβ1-40 iodinated on the tyrosine residue at position 10, tracer”, the “Zn^2+ concentration required to precipitate” value in series [8] is recorded as 1 mM.

With “insulin: insulin, literature comparison for zinc binding”, the “stoichiometric ratio Zn^2+:insulin in excess of which the peptide precipitates” value in series [9] was above 0.33.
